# Measured values taken from US20250026746A1, “ENHANCERS OF PARTICULATE GUANYLYL CYCLASE RECEPTOR A” (Mayo Foundation for Medical Education and Research, priority 2021, published 2025).
# Key:
# human pGC-A = target: T1, human pGC-A (Homo sapiens, UniProt P16066); test: Positive allosteric modulation of pGC-A-mediated cGMP production, HTRF competition assay (Example 1); assay type: cell-based; conditions: free base; for EC50: HEK 293 human pGC-A expressing cells, presence of EC30 ANP (1.3 pM), average of 3 independent experiments, read-out: pEC50 cGMP response (converted)
# T1 construct: expressed in transfected cells; host or cells: HEK293
# T1 sequence (P16066 33-1061): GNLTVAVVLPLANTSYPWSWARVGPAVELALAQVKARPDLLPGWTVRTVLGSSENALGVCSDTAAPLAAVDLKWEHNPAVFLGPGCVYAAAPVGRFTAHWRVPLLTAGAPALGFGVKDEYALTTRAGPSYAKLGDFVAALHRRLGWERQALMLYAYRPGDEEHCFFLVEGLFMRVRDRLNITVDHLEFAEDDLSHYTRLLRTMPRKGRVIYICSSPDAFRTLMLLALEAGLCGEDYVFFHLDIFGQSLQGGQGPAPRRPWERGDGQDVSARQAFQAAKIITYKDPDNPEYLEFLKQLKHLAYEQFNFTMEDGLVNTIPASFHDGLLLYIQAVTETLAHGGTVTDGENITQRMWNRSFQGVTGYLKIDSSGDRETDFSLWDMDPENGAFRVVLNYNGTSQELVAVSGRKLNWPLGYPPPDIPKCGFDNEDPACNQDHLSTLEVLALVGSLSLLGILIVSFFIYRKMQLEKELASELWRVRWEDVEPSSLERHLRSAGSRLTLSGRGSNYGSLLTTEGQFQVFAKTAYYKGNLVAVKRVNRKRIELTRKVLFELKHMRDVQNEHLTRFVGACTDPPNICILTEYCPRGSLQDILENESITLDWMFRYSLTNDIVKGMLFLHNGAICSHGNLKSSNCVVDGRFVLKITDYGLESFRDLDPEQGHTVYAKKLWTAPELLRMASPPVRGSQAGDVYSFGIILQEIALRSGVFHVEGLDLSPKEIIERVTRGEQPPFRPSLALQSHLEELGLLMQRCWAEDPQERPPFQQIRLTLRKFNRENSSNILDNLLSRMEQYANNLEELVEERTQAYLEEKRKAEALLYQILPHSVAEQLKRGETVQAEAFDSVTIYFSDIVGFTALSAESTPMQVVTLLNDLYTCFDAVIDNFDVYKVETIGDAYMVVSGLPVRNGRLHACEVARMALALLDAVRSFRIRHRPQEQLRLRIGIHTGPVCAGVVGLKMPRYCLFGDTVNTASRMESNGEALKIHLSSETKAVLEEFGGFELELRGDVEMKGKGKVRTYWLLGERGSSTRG
# T1 sequence (P01160 124-151 partner limits assumed): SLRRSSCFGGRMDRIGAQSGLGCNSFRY
# Method: Test compounds at 10 mM DMSO stock concentration were added to 384 well assay plates using Tecan dispenser starting at 40 μM concentration and diluted 2-fold for 10-point concentration-response curves. Wells were backfilled with DMSO such that the final concentration of DMSO in all wells was maintained at 0.3% DMSO. Positive allosteric modulation (presence of EC30 concentration of ANP at 1.3 pM) of pGC-A-mediated activation of cGMP production was measured in human pGC-A overexpressing HEK293 cells by homogenous time-resolved florescence (HTRF) competition assay using cGMP CisBio detection kit (Cat #: 62GM2PEC). Enantiomerically pure(S)-N-(4,6-difluorobenzo[d]thiazol-2-yl)-1-(2-(dimethylamino)ethyl) piperidine-3-carboxamide and (R)-N-(4,6-difluorobenzo[d]thiazol-2-yl)-1-(2-(dimethylamino)ethyl) piperidine-3-carboxamide were individually synthesized from enantiomerically pure starting materials (R- and S-nipecotic acid).
# [1] = target: T2, extracellular domain human GC-A recombinant protein (Homo sapiens, UniProt P16066); test: Surface plasmon resonance binding to GC-A receptor; conditions: acetate salt, SPR 25° C., 1:1 Langmuir model; for kon: read-out: ka association rate; for koff: read-out: kd dissociation rate
# T2 construct: extracellular domain human GC-A recombinant protein; purchased My BioSource, Inc. San Diego, CA
# T2 sequence (P16066 33-473 limits assumed): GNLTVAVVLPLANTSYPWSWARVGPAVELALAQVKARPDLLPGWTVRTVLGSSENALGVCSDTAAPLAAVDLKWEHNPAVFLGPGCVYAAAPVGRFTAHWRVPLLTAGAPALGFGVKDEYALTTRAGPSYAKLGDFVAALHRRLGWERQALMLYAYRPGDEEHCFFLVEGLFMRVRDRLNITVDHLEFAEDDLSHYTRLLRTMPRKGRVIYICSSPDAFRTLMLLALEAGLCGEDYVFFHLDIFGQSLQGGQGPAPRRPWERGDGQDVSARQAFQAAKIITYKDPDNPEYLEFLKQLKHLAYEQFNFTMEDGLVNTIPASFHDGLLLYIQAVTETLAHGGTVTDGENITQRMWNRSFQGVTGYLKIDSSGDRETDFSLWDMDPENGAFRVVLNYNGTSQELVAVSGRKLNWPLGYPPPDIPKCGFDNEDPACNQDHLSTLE
# Method: Surface plasmon resonance (SPR) measurements were performed at 25° C. on a BI-4500 SPR instrument (Biosensing Instrument Inc. Tempe AZ). As per the instructions by the Biosensing instrument manual, 400 mM nickel sulfate in deionized water was linked to the Ni-NTA sensor chip (Biosensing Instrument Inc. Tempe AZ. Then 30 μg/ml of extracellular domain human GC-A recombinant protein (My BioSource, Inc. San Diego, CA), containing 12 histidine residues on the C-terminus, was then immobilized to the nickel sulfate on the Ni-NTA sensor chip. After, the chip was washed with buffer (150 mM NaCl, 50 μM EDTA pH 7.4, 0).1% DMSO), then 100 μL of sequentially diluted Compound 3 acetate salt (0.125, 0.25, 0.5, 1, 2 μM), Compound 1 acetate salt (6.25, 12.5, 25, 50, 100 nM) or Compound 2 acetate salt (0.125, 0.25, 0.5, 1, 2 μM) was injected at the rate of 60 ul/min and allowed to dissociate for 60 seconds. Data was collected as sensorgrams. Binding kinetics were derived from sensorgrams using BI-Data Analysis Program (Biosensing Instrument, Tempe AZ). Affinity analysis of GC-A with Compound 3, Compound 2 and/or Compound 1 interactions were performed using a 1:1 Langmuir binding model. Two series were performed for all studies.
EC50 (human pGC-A) [nM],fold more potent than the R-enantiomer (compound 2) (human pGC-A; presence of ANP) [fold],Kd [1] [nM],kon [1] [M⁻¹ s⁻¹],koff [1] [s⁻¹],Compound
398,3.5,12,1.09e+06,0.014,"CN(C)CCN1CCC[C@H](C(=O)Nc2nc3c(F)cc(F)cc3s2)C1 [Compound 1, (S)-N-(4,6-difluorobenzo[d]thiazol-2-yl)-1-(2-(dimethylamino)ethyl) piperidine-3-carboxamide]"
1260,,121,430000,0.052,"CN(C)CCN1CCC[C@@H](C(=O)Nc2nc3c(F)cc(F)cc3s2)C1 [Compound 2, (R)-N-(4,6-difluorobenzo[d]thiazol-2-yl)-1-(2-(dimethylamino)ethyl) piperidine-3-carboxamide]"
,,176,113000,0.02,"CN(C)CCN1CCCC(C(=O)Nc2nc3c(F)cc(F)cc3s2)C1 (racemic) [Compound 3, N-(4,6-difluorobenzo[d]thiazol-2-yl)-1-(2-(dimethylamino)ethyl) piperidine-3-carboxamide]"
